According to patent US9499446B2, “Zinc-essential for flora and fauna” (priority 2012, dated 2016):

Key:
wheat crops = assay: Experiment II: field experiments in wheat, irrigated north-west plain zone of Rajasthan; type: in vivo; conditions: 24 kg ha^−1
Description: Field Experiments in wheat was carried out using the composition of the present invention in the soils of the irrigated north-west plain zone of Rajasthan. The soils of north-west plain zone are deficient in zinc and poor growth or deficiency symptoms appear on the wheat crops. Two foliar sprays were applied. First, during the vegetative growth stage on early appearance of the deficiency symptoms and the second foliar spray during the flag leaf initiation stage of the wheat crop. [table] The soil of the irrigated north-west plain zone of Rajasthan has a pH, of 8.27 and electric conductivity was 0.20 dS^−m. […] The diethylene triamine pentaacetic acid (DTPA) extractable zinc concentration in the soil was low.

Wheat cultivar PBW 550 = assay: Experiment I: field experiments in wheat under different Zn treatments (PAU research farm and farmer's field, Jattpur); type: in vivo; conditions: soil application 62.5 kg ha^−1
Description: Field Experiments in wheat was carried out using the composition of the present invention for two consecutive years in Punjab Agriculture University (PAU) Research Farm and Framer's field (Jattpur) loamy soil. Wheat cultivar PBW 550 seeds were sown during the first week of November. Two Zn chelates at different concentrations at two stages of wheat plant growth were applied through foliar application. In another treatment, Zn was added to the soil as basal dose at 62.5 kg ha^−1 using ZnSO4.7H2O salt. The first application of Zn chelate spray was done at maximum tillering stage and the second application was made at panicle initiation stage. Various parameters like plant height, tillers and 1000-grain weight were noted. Additionally during maturity in the month of April, the wheat grain and straw yield were noted.
The physio-chemical analyses of the soil before the start of the experiment was carried out at the two locations were the experiments were to be carried.
The plant parameters in wheat under different Zn treatments at PAU research farm and farmer's field are shown in Table 3 and Table 4 respectively and grain and straw yields in wheat under different Zn treatments at PAU research farm and farmer's field are shown in Table 5 and Table 6 respectively.

[1] = PAU research farm, Rabi 2009-2010
[2] = PAU research farm, Rabi 2010-2011

Question: O=S(=O)([O-])[O-].[Zn+2] [ZnSO4] was tested. Which “1000 Grain weight” value (wheat crops) did it give?
Answer: 39.73 g

Question: And the “Ear length (cm)” value (wheat crops)?
Answer: 10.18 cm

Question: What about the “No. of tillers m^−1 row length” value (wheat crops) of the same compound?
Answer: 122

Question: What about the “Yield (tonne ha^−1) Grain” value (wheat crops) of the same compound?
Answer: 4.57 tonne ha^−1

Question: And the “Yield (tonne ha^−1) Straw” value (wheat crops)?
Answer: 6.61 tonne ha^−1

Question: What about the “Zn conc” value (wheat crops) of the same compound?
Answer: 30.25 mg/kg

Question: O.O.O.O.O.O.O.O=S(=O)([O-])[O-].[Zn+2] [ZnSO4•7H2O] was tested. Which “1000 grains weight” value (Wheat cultivar PBW 550; [1]) did it give?
Answer: 38.4 g

Question: And the Grain yield (Wheat cultivar PBW 550; [1])?
Answer: 52.5 q ha^−1

Question: And the “Grain yield % increase over control” value (Wheat cultivar PBW 550; [1])?
Answer: 10.8%

Question: And the “Plant height (cm)” value (Wheat cultivar PBW 550; [1])?
Answer: 76.7 cm

Question: And the Straw yield (Wheat cultivar PBW 550; [1])?
Answer: 65.0 q ha^−1

Question: What about the “Straw yield % increase over control” value (Wheat cultivar PBW 550; [1]) of the same compound?
Answer: 3.7%

Question: What about the “Tillers per square meter” value (Wheat cultivar PBW 550; [1]) of the same compound?
Answer: 293

Question: And the “1000 grains weight” value (Wheat cultivar PBW 550; [2])?
Answer: 38.7 g

Question: And the Grain yield (Wheat cultivar PBW 550; [2])?
Answer: 54.4 q ha^−1

Question: And the “Grain yield % increase over control” value (Wheat cultivar PBW 550; [2])?
Answer: 13.3%

Question: And the “Plant height (cm)” value (Wheat cultivar PBW 550; [2])?
Answer: 97.69 cm

Question: And the Straw yield (Wheat cultivar PBW 550; [2])?
Answer: 65.7 q ha^−1

Question: And the “Straw yield % increase over control” value (Wheat cultivar PBW 550; [2])?
Answer: 5.5%

Question: What about the “Tillers per square meter” value (Wheat cultivar PBW 550; [2]) of the same compound?
Answer: 377

Question: And the “1000 grains weight” value (Wheat cultivar PBW 550; farmer's field, Rabi 2009-2010)?
Answer: 35.1 g

Question: And the Grain yield (Wheat cultivar PBW 550; farmer's field, Rabi 2009-2010)?
Answer: 46.7 q ha^−1

Question: And the “Grain yield % increase over control” value (Wheat cultivar PBW 550; farmer's field, Rabi 2009-2010)?
Answer: 28.7%

Question: And the “Plant height (cm)” value (Wheat cultivar PBW 550; farmer's field, Rabi 2009-2010)?
Answer: 76.6 cm

Question: What about the Straw yield (Wheat cultivar PBW 550; farmer's field, Rabi 2009-2010) of the same compound?
Answer: 55.3 q ha^−1

Question: And the “Straw yield % increase over control” value (Wheat cultivar PBW 550; farmer's field, Rabi 2009-2010)?
Answer: 9.1%

Question: What about the “Tillers per square meter” value (Wheat cultivar PBW 550; farmer's field, Rabi 2009-2010) of the same compound?
Answer: 272

Question: And the “1000 grains weight” value (Wheat cultivar PBW 550; farmer's field, Rabi 2010-2011)?
Answer: 34.3 g

Question: And the Grain yield (Wheat cultivar PBW 550; farmer's field, Rabi 2010-2011)?
Answer: 46.0 q ha^−1

Question: And the “Grain yield % increase over control” value (Wheat cultivar PBW 550; farmer's field, Rabi 2010-2011)?
Answer: 28.5%

Question: And the “Plant height (cm)” value (Wheat cultivar PBW 550; farmer's field, Rabi 2010-2011)?
Answer: 74.7 cm

Question: And the Straw yield (Wheat cultivar PBW 550; farmer's field, Rabi 2010-2011)?
Answer: 54.7 q ha^−1

Question: And the “Straw yield % increase over control” value (Wheat cultivar PBW 550; farmer's field, Rabi 2010-2011)?
Answer: 20.8%

Question: And the “Tillers per square meter” value (Wheat cultivar PBW 550; farmer's field, Rabi 2010-2011)?
Answer: 353
